{"source": "patent US5135952A", "about": "“Antiinflammatory and/or antiallergic methods” (Senju Pharmaceutical Co., ltd., priority 1989, dated 1992)", "key": {"[1]": {"system": "carrageenan-induced conjunctival edema", "assay": "Effect on Rat Carrageenan-Induced Conjunctival Edema", "format": "in vivo, rat (male Wistar)", "details": "for Edema weight / % Inhibition (edema weight): 3 hours, n = 10; for Edema weight: mean ± S.E.; for effect on rat carrageenan-induced conjunctival edema, in words: DCE-GS 3, 10, 30 mg/kg i.v., ester derivatives and GSH 30 mg/kg", "procedure": "Effect on Rat Carrageenan-Induced Conjunctival Edema Male Wistar rats weighing about 130 g were used in the experiment. S-(α,β-Dicarboxyethyl)glutathione (hereinafter referred to as DCE-GS) dissolved in physiological saline and adjusted with sodium hydrochloride to pH 7 was administered in doses of 3, 10 and 30 mg/kg to rats through the caudal vein (control group: physiological saline). […] One minute later, 50 μl of 1% carrageenan solution was injected beneath the palpebral conjunctiva of the rat under pentobarbital anesthesia. After three hours, each rat was sacrificed and conjunctival edema was isolated and weighted."}, "hygroscopicity": {"assay": "hygroscopicity", "format": "physicochemical"}, "[2]": {"system": "rat peritoneal mast cells", "assay": "Inhibitory Effect on the Release of Histamine from Rat Peritoneal Exudate Cells (Compound 48/80-induced)", "format": "cell-based, rat (male SD)", "details": "for % Release (histamine): mean ± S.E., boiled control specimen = 100%, control 75.0 ± 6.7", "procedure": "Inhibitory Effect on the Release of Histamine from Rat Peritoneal Exudate Cells\n(1) Preparation of rat peritoneal cell suspension\nMale SD rats weighing 250 to 280 g were used. The rat peritoneal cells were collected and isolated according to the method of Sullivan et al. First, the rat was bled to death by decapitation and immediately the hair of the abdomen was shaved, the skin was incised a few centimeters, and 10 ml of mast cell medium (MCM) was injected into the peritoneal cavity using a 18-G needle while picking up the muscle with tweezers, followed by 90-sec gentle massage. Then, the abdomen was opened to collect as much ascites as possible using a Terumo syringe. The ascites contaminated with blood was not used in the experiment. The ascites was layered in a polycarbonate tube containing 2 ml of 40% Ficoll 400 (Pharmacia) dissolved in MCM, allowed to stand at room temperature for 30 minutes, and centrifuged at 700 rpm at 4° C. for 10 minutes. Then, the sediment in the upper layer of Ficoll 400 was pipetted and washed three times with about 7 ml of MCM. The cells were counted with a Burker-Turk cytometer and using MCM as a diluent, a cell suspension of about 10^5 cells/ml (rat peritoneal cell suspension) was prepared. Mast cells were identified by staining intracellular granules with 0.05% toluidine blue.\n(2) Release of histamine from mast cells\nAfter 0.8 ml of rat peritoneal cell suspension was preincubated at 37° C. for 10 minutes, 0.1 ml of the test drug was added. The system was incubated for 5 minutes, at the end of which time 0.1 ml of 10 μg/ml of Compound 48/80 (Sigma) in physiological saline was added. After 10 minutes' incubation, the reaction mixture was cooled in ice-water for 10 minutes to terminate the reaction and centrifuged at 700 rpm at 4° C. for 5 minutes. Then, histamine in the supernatant was determined by HPLC in accordance with the method of Shore et al. as partially modified."}, "[3]": {"system": "passive anaphylaxis of the back of the rat", "assay": "Effect on Passive Anaphylaxis of the Back of the Rat", "format": "in vivo, rat (male Wistar)", "details": "for Area, Inhibition (%) / Dye, Inhibition (%) / Area (of stain) / Dye: 30 minutes; for Area (of stain) / Dye: mean ± S.E., n = 4 or 5; for Area (of stain): saline 926 ± 65; for Dye: saline 767 ± 87", "procedure": "Effect on Passive Anaphylaxis of the Back of the Rat\nMale Wistar rats weighing about 130 g were used in the experiment. The back hair of each rat was clipped with clippers. The rat antiserum was injected intradermally at the back of the rat. After three days, DCE-GS was administered in doses of 3, 10 and 30 mg/kg (physiological saline to controls) into the caudal vein and after one minute 1 ml of a 50:50 (v/v) mixture of the antigen 1% ovalbumin and 2% Evans blue was administered intravenously to induce passive anaphylaxis. After 30 minutes, the rat was sacrificed and the stained area was determined. The pertinent area was removed and the dye was extracted with 20 ml of formaldehyde for determination."}, "male ddY mice": {"system": "male ddY mice", "assay": "Intravenous Acute Toxicity Study", "format": "in vivo, mouse (male ddY)", "details": "i.v.; 100, 200, 400, 800 and 1,600 mg/kg; seventy-two-hour observation; groups of 5", "procedure": "Intravenous Acute Toxicity Study\nThe intravenous acute toxicity study of DCE-GS was conducted in male ddY mice, weighing about 20 g, in groups of 5. The doses were 100, 200, 400, 800 and 1,600 mg/kg (common ratio 2). All the injections were adjusted with 1N sodium hydrochloride to pH 7."}, "[4]": {"details": "previously discovered by the inventors (Japanese Kokai 63-8337/1988; Japanese Application 1-79956/1989); cited from earlier work"}, "platelet": {"system": "platelet", "details": "previously discovered by the inventors (Japanese Kokai 63-8337/1988; Japanese Application 1-79956/1989); cited from earlier work"}, "[5]": {"details": "Table 2, 30 mg/kg, *p < 0.01, **p < 0.001 vs saline (73.7 ± 2.9)"}}, "data": [{"compound": "CCCCOC(=O)CC(SC[C@H](NC(=O)CC[C@H](N)C(=O)O)C(=O)NCC(=O)O)C(=O)OCCCC", "note": "(stereo partly drawn) [DCE-GS di-n-butyl ester sodium, S-(di-n-butyl-α,β-dicarboxyethyl)glutathione sodium]", "values": [{"measurement": "Edema weight", "setting": "[1]; [5]", "value": "60.9 ± 2.8", "unit": "mg"}, {"measurement": "% Inhibition (edema weight)", "setting": "[1]; Table 2, 30 mg/kg", "value": 17.4, "unit": "%"}, {"measurement": "hygroscopicity", "setting": "hygroscopicity", "value": "hygroscopic"}]}, {"compound": "N[C@@H](CCC(=O)N[C@@H](CS)C(=O)NCC(=O)O)C(=O)O", "note": "[GSH, glutathione, reference compound]", "values": [{"measurement": "effect on rat carrageenan-induced conjunctival edema, in words", "setting": "[1]", "value": "no antiinflammatory effect"}, {"measurement": "Edema weight", "setting": "[1]; [5]", "value": "74.8 ± 3.5", "unit": "mg"}, {"measurement": "% Inhibition (edema weight)", "setting": "[1]; Table 2, 30 mg/kg", "value": -1.5, "unit": "%"}]}, {"compound": "N[C@@H](CCC(=O)N[C@@H](CSC(CC(=O)O)C(=O)O)C(=O)NCC(=O)O)C(=O)O", "note": "(stereo partly drawn) [DCE-GS, S-(α,β-Dicarboxyethyl)glutathione]", "values": [{"measurement": "effect on rat carrageenan-induced conjunctival edema, in words", "setting": "[1]", "value": "inhibited rat carrageenan-induced conjunctival edema dose-dependently"}, {"measurement": "Edema weight", "setting": "[1]; Table 1, 3 mg/kg i.v. (caudal vein), *p < 0.001 vs saline (71.7 ± 3.6)", "value": "50.5 ± 1.9", "unit": "mg"}, {"measurement": "% Inhibition (edema weight)", "setting": "[1]; Table 1, 3 mg/kg i.v.", "value": 29.6, "unit": "%"}, {"measurement": "Edema weight", "setting": "[1]; Table 1, 10 mg/kg i.v., *p < 0.001 vs saline (71.7 ± 3.6)", "value": "44.9 ± 2.4", "unit": "mg"}, {"measurement": "% Inhibition (edema weight)", "setting": "[1]; Table 1, 10 mg/kg i.v.", "value": 37.4, "unit": "%"}, {"measurement": "Edema weight", "setting": "[1]; Table 1, 30 mg/kg i.v., *p < 0.001 vs saline (71.7 ± 3.6)", "value": "44.9 ± 2.2", "unit": "mg"}, {"measurement": "% Inhibition (edema weight)", "setting": "[1]; Table 1, 30 mg/kg i.v.", "value": 37.4, "unit": "%"}, {"measurement": "% Release (histamine)", "setting": "[2]; 10^-3 M, n = 3", "value": "2.9 ± 3.4", "unit": "%"}, {"measurement": "% Release (histamine)", "setting": "[2]; 10^-4 M, n = 3", "value": "59.4 ± 6.2", "unit": "%"}, {"measurement": "% Release (histamine)", "setting": "[2]; 10^-5 M, n = 3", "value": "73.4 ± 6.5", "unit": "%"}, {"measurement": "inhibition of histamine release, in words", "setting": "[2]; 10^-5 to 10^-3 M", "value": "inhibited histamine release concentration-dependently"}, {"measurement": "inhibition at 1000 µM", "setting": "[2]; Rattus norvegicus, Mast cell, 10^-3 M, n = 3", "value": 96.1, "unit": "%"}, {"measurement": "inhibition at 100 µM", "setting": "[2]; Rattus norvegicus, Mast cell, 10^-4 M, n = 3", "value": 20.8, "unit": "%"}, {"measurement": "inhibition at 10 µM", "setting": "[2]; Rattus norvegicus, Mast cell, 10^-5 M, n = 3", "value": 2.1, "unit": "%"}, {"measurement": "Area, Inhibition (%)", "setting": "[3]; 3 mg/kg i.v.", "value": 6.5, "unit": "%"}, {"measurement": "Dye, Inhibition (%)", "setting": "[3]; 3 mg/kg i.v.", "value": 17.5, "unit": "%"}, {"measurement": "Area (of stain)", "setting": "[3]; 3 mg/kg i.v., *p < 0.05", "value": "866 ± 195", "unit": "mm^2"}, {"measurement": "Dye", "setting": "[3]; 3 mg/kg i.v.", "value": "633 ± 111", "unit": "μg/site"}, {"measurement": "Area, Inhibition (%)", "setting": "[3]; 10 mg/kg i.v.", "value": 30.5, "unit": "%"}, {"measurement": "Dye, Inhibition (%)", "setting": "[3]; 10 mg/kg i.v.", "value": 38.5, "unit": "%"}, {"measurement": "Area (of stain)", "setting": "[3]; 10 mg/kg i.v., **p < 0.01", "value": "644 ± 88", "unit": "mm^2"}, {"measurement": "Dye", "setting": "[3]; 10 mg/kg i.v.", "value": "472 ± 98", "unit": "μg/site"}, {"measurement": "Area, Inhibition (%)", "setting": "[3]; 30 mg/kg i.v.", "value": 47.2, "unit": "%"}, {"measurement": "Dye, Inhibition (%)", "setting": "[3]; 30 mg/kg i.v.", "value": 43.4, "unit": "%"}, {"measurement": "Area (of stain)", "setting": "[3]; 30 mg/kg i.v., ***p < 0.001", "value": "489 ± 47", "unit": "mm^2"}, {"measurement": "Dye", "setting": "[3]; 30 mg/kg i.v., *p < 0.05", "value": "434 ± 77", "unit": "μg/site"}, {"measurement": "inhibition of area of stain and amount of dye, in words", "setting": "[3]; 3, 10 and 30 mg/kg i.v.", "value": "inhibited both the area of stain and the amount of dye on the rat back dose-dependently"}, {"measurement": "death / abnormal behavior", "setting": "male ddY mice", "value": "neither death nor abnormal behavior"}, {"measurement": "antihemogglutination activity", "setting": "[4]", "value": "antihemogglutination activity"}, {"measurement": "platelet aggregation inhibitory activity", "setting": "platelet", "value": "platelet aggregation inhibitory activity"}]}, {"compound": "S-(monoethyl-α,β-dicarboxyethyl)glutathione sodium [DCE-GS monoethyl ester sodium]", "values": [{"measurement": "Edema weight", "setting": "[1]; [5]", "value": "58.5 ± 2.0", "unit": "mg"}, {"measurement": "% Inhibition (edema weight)", "setting": "[1]; Table 2, 30 mg/kg", "value": 20.6, "unit": "%"}]}, {"compound": "CCOC(=O)CC(SC[C@H](NC(=O)CC[C@H](N)C(=O)O)C(=O)NCC(=O)O)C(=O)OCC", "note": "(stereo partly drawn) [DCE-GS diethyl ester sodium, S-(diethyl-α,β-dicarboxyethyl)glutathione sodium]", "values": [{"measurement": "Edema weight", "setting": "[1]; [5]", "value": "49.7 ± 2.6", "unit": "mg"}, {"measurement": "% Inhibition (edema weight)", "setting": "[1]; Table 2, 30 mg/kg", "value": 32.6, "unit": "%"}]}]}
